Data as given in US8455647B2, “6-aminoisoquinoline compounds” (Aerie Pharmaceuticals, Inc., priority 2005, dated 2013).
Counter-ions that a name gives are not always drawn.

Legend:
Assay type in all cases: in vivo
eyes [1] = assay: Topical ocular composition (Example 212), allergic symptoms
eyes [2] = assay: Topical ocular composition (Example 212), dry eye syndrome; details: composition of Example 212 (0.50 wt %), as a drop twice per day
eyes [3] = assay: Topical ocular composition (Example 212), hyperemia, redness and ocular irritation; details: composition of Example 212 (0.50 wt %), as a drop as needed
[4] = system: patient suffering from glaucoma; assay: Topical ocular composition (Example 212) lowering intraocular pressure
Experimental: Examples of such assays are described in the following reference, incorporated herein by reference: C. Liljebris, G. Selen, B. Resul, J. Sternschantz, and U. Hacksell, “Derivatives of 17-Phenyl-18,19,20-trinorprostaglandin F2α Isopropyl Ester: Potential Anti-glaucoma Agents”, Journal of Medicinal Chemistry, Vol. 38 (2) 1995, pp. 289-304.
(§1) Topical pharmaceutical compositions for lowering intraocular pressure are prepared by conventional methods and formulated as follows: […]
(§2) A compound according to this invention is used as the 6-aminoisoquinoline derivative. […]

eyes [5] = assay: Topical ocular composition (Example 212), neuroprotective agent; details: composition of Example 212 (0.50 wt %), as a drop 4 times per day
Experimental: as §1, §2

[6] = composition of Example 212 (0.50 wt %), as a drop twice per day
[7] = composition of Example 212/213 (0.50 wt %), as a drop twice a day or as needed

O=C(CCl)Nc1ccc2cnccc2c1 [Example E1, 2-chloro-N-(isoquinolin-6-yl) acetamide]
decrease of allergic symptoms (eyes [1]; [6]): substantially decreases allergic symptoms | relief of dry eye syndrome (eyes [2]): relieves dry eye syndrome

O=C(CN1CCOCC1)Nc1ccc2cnccc2c1 [Example E105, N-(isoquinolin-6-yl)-2-morpholinoacetamide]
decrease of hyperemia, redness and ocular irritation (eyes [3]): substantially decreases hyperemia, redness and ocular irritation

NCC(=O)Nc1ccc2cnccc2c1 [Example E40, 2-amino-N-isoquinoline-6-yl-acetamide dihydrochloride]
decrease of hyperemia, redness and ocular irritation (eyes [3]): substantially decreases hyperemia, redness and ocular irritation

O=C(NCc1ccccc1)Nc1ccc2cnccc2c1 [Example E88, 1-benzyl-3-(isoquinolin-6-yl)urea]
decrease of allergic symptoms (eyes [1]; composition of Example 212/213 (0.50 wt %), as a drop as needed): substantially decreases allergic symptoms

O=C(Nc1ccncc1)c1ccc(C2CC2C(=O)Nc2ccc3cnccc3c2)cc1 (stereo not shown) [Example E118, 4-(2-(isoquinolin-6-ylcarbamoyl)cyclopropyl)-N-(pyridin-4-yl)benzamide]
decrease of intraocular pressure [4, 7]: substantially decreases intraocular pressure

O=C(CNCc1ccccc1)Nc1ccc2cnccc2c1 [Example E58, 2-(benzylamino)-N-(isoquinolin-6-yl)acetamide]
decrease of intraocular pressure [4, 6]: substantially decreases intraocular pressure

O=C(Nc1ccc2cnccc2c1)OCc1ccccc1 [Example E87, benzylisoquinolin-6-ylcarbamate]
decrease of allergic symptoms (eyes [1]; [6]): substantially decreases allergic symptoms | relief of dry eye syndrome (eyes [2]): relieves dry eye syndrome

CNC(=O)c1cccc(NCS(=O)(=O)Nc2ccc3cnccc3c2)c1 [Example E136, 3-((N-isoquinolin-6-ylsulfamoyl)methylamino)-N-methylbenzamide]
decrease of intraocular pressure [4, 6]: substantially decreases intraocular pressure

N[C@@H](CSCC(C(=O)c1ccc(/C=C/C(=O)Nc2ccc3cnccc3c2)cc1)c1ccccc1)C(=O)O (stereo partly drawn) [Example E207, (2R)-2-amino-3-(3-(4-((E)-3-(isoquinolin-6-ylamino)-3-oxoprop-1-enyl)phenyl)-3-oxo-2-phenylpropylthio)propanoic acid]
decrease of intraocular pressure ([4]; composition of Example 212 (0.50 wt %), as a drop 4 times per day): substantially decreases intraocular pressure | neuroprotective agent (eyes [5]): serves as a neuroprotective agent

CNC(=O)c1cccc(NCC(=O)Nc2ccc3cnccc3c2Cl)c1 [Example E119b, 3-(2-(5-chloroisoquinolin-6-ylamino)-2-oxoethylamino)-N-methyl benzamide]
decrease of intraocular pressure [4, 7]: substantially decreases intraocular pressure
